From PubChem BioAssay AID1205 (EPA DSSTox, 2008) come the findings set out here.

SMILES strings stand for the structures. The source made the active and inactive calls.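 Rule for the calls: active = tumour findings in long-term animal cancer tests in more than one sex, species or organ; inactive = no tumour finding and more than one negative test.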

The data set in a line: DSSTox (CPDBAS) Carcinogenic Potency Database Summary MultiCellCall Results. Conditions: animal carcinogenicity bioassays, multi-cell call summary. In a few lines:
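ActivityScore sums 50 for multispecies, 30 for multisex and 20 for multisite positivity. Based on the most positive experiment per sex-species across standardised chronic rodent and other animal cancer tests.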
For `Cc1ccc(S(=O)(=O)Oc2ccc(N=Nc3ccc(-c4ccc(N=Nc5c(O)ccc6cc(S(=O)(=O)O)cc(S(=O)(=O)O)c56)c(C)c4)cc3C)cc2)cc1`, the outcome was “active; multisite active; multisex active”. With `[Cd+2].[Cl-].[Cl-]` the entry was “active; multisite active; multisex active”; with `COc1ccc(O)c(C(C)(C)C)c1`, “active; multisex active; multispecies active”. As to `O=C/C(Cl)=C(/Cl)C(=O)O`, the outcome is “inactive; multisex inactive”.

In the case of `COC(N)=O`, the outcome was “active; multisex active”.

For `CN(C)C=O`, the outcome was “inactive; multisex inactive; multispecies inactive”.

Turning to `CCC(Cl)CCC(Cl)C(Cl)CC(Cl)C(Cl)C(Cl)CCl` (stereo not drawn), the outcome is “active; multisite active; multisex active; multispecies active”. As for `Nc1ccc(N=Nc2ccc(N)cc2)cc1`, the outcome was “inactive; multisex inactive”.

In the case of `CCOC(=O)[C@]1(c2ccccc2)CCC=C[C@H]1N(C)C`, the outcome was “inactive; multisex inactive; multispecies inactive”.

`CCNC(=O)N(CCN(C)C)N=O`: the outcome is “active; multisite active”. As to `CC/C=C(/CC)[N+](=O)[O-]`, the outcome is “active; multispecies active”. With `CC(C)O`, the outcome is “inactive; multisex inactive; multispecies inactive”. Consider `CC(=O)NNC(=O)c1ccncc1`, for which the outcome is “active; multisex active”.
